Laboratory results taken from US20250302840A1, “COMBINATION THERAPIES” (Janssen Pharmaceutica NV, priority 2021, published 2025).
Counter-ions that a name gives are not always drawn. Marks after values point to notes of the source that are not given here.

Columns and labels:
[1] = system: iCell® Cardiomyocytes2; assay: Ca2+-fluorescence assay in human pluripotent stem cell-derived cardiomyocytes (CTCM human); type: cell-based; design: key to Hazard scoring, Color @ 0.1 μM / Hazard scoring, Color @ 0.2 μM / Hazard scoring, Color @ 0.5 μM / Hazard scoring, Color @ 1 μM / Hazard scoring, Color @ 2.5 μM / Hazard scoring, Color @ 5 μM / Hazard scoring, Color @ 0.3 μM / Hazard scoring, Color @ 3 μM / Hazard scoring, Color @ 10 μM / Hazard scoring, Color @ 30 μM: Green: No concern; Yellow: Low concern; Red: High concern; Black: Very high concern due to arrhythmic events
Method: Compounds were tested in the 96-well plates.
Compounds were tested at 0.1 μM, 0.2 μM, 0.5 μM, 1 μM, 2.5 μM and 5 μM (n=4 per dose) on Cor.4U®-Cardiomyocytes or on iCell® Cardiomyocytes2.
Alternatively, compounds were tested at 0.1 μM, 0.3 μM; 1 μM, 3 μM, 10 μM and 30 μM (n=4 per dose) mostly on iCell® Cardiomyocytes2.
Vehicle control: Dimethylsulfoxide (DMSO). The solutions of the compound in DMSO or its solvent (final concentration of 0.1% DMSO; n=8).
Tested compounds were dissolved in DMSO at 1000-fold the intended concentrations.
A compound “mother-plate” was made, containing the test compounds and positive and negative controls at 1000-fold the final concentrations. At the experiment day, these stock solutions were diluted with Tyrode (Sigma), supplemented with 10 mM HEPES (Gibco), to 2-fold the intended concentration (in round bottom compound plates). Final DMSO concentration in test solutions and vehicle control was 0.1%.
Second line hSC derived cardiomyocyte called iCell® Cardiomyocytes2 were purchased from FUJIFILM Cellular Dynamics (USA). The experiments with test drugs are carried out 5 to 7 days after plating the cells onto the plate to have a living, beating monolayer of hiPSC-derived cardiomyocytes. The beating monolayer in 96-well-plates are normally taken from 2 Vials of frozen iCell® Cardiomyocytes2 (˜5 million cells/vial), which will be plated onto […] 96-well plates (z50K/well).
At least one hour before the start of the experiments the normal cell medium was replaced with Tyrode solution with Calcium dye (see below).
Cal 520 dye (AAT Bioquest) was dissolved in 11 ml of Tyrode supplemented with 10 mM HEPES and warmed up to 37 C before adding to the cells.
35 μl cell culture medium was removed from each well and replaced with 35 μl of pre-warmed Cal 520 dye solution and cell plate was incubated for 45 min at 37° C./5% CO2. Cells were incubated for 5 min at 37° C.
Spontaneous electrical activity is recorded, using Cal520™ (AAT Bioquest) calcium fluorescence-dye signalling. This dye integrates the total intracellular calcium activity over the whole well. A bottle of Cal520 dye ([…], MW: 1103/mol) is dissolved with 50 μl DMSO as a stock solution of 0.9 mM. 50 μL of the stock solution of the dye was added to 10 ml Tryodes solution to have dye concentration of 4.5 μM. Subsequently, 35 μl of this dye solution was added into each well, to have a final dye concentration of 1.58 μM. The current dye protocol on this CTCM human assay was established recently (Ivan Kopljar et al, Journal of Pharmacological and toxicological methods 2018. 91: 80-86; Lu et al., Tox Sci 2019. 170 (2): 345-356).
Fluorescent signals (Ca^2+ transient morphology) were measured using the Functional Drug Screen System (FDSS/pCell; Hamamatsu, Japan) and the recordings were subsequently analyzed off-line, using appropriate software e.g., Notocord.
The cell plate was loaded into the FDSS/pCell for a test run: Ca^2+ transients were measured for 4 minutes to check for synchronous beating of the cardiomyocytes in each well. All 96 wells were measured simultaneously (sampling interval: 0.06 s, short exposure time: 10 ms; excitation wavelength 480 nm; emission wavelength 540 nm; FDSS/pCell warmed to 37° C.).
During the compound addition step, 100 μl of the respective double-concentrated test solutions was pipetted into each well simultaneously.
Data were analyzed off-line using appropriate software e.g., Notocord-Hem (version 4.3).
The following parameters of the Ca^2+ transient morphology were measured: • beat rate (BR) • amplitude of the Ca^2+ transient (Amp), • CTD90: Ca^2+ transient duration at 90% (time to 90% of the initial base value).
The presence of various ‘arrhythmia-like’ activities were also noted during the experimental periods. […]

[2] = system: MOLM-13 tumors; assay: Efficacy of combinations in MOLM-13 (KMT2a-r) IV model in NSG mice; type: in vivo; conditions: azacitidine 2 mg/kg ip QD × 7; venetoclax 100 mg/kg po QD × 28; Compound A1 10 mg/kg po QD × 28
Method: Each mouse received an injection of 1×10^5 MOLM-13 cells, and all other parameters were conducted as described for experiment (10).

[3] = Mouse PK (in vivo T1/2 and oral bioavailability); design: species or system CD-1 mice; conditions: for In vivo T1/2 (IV): IV 0.5 or 1.0 mg/kg
Method: In vivo pharmacokinetics (PK) were assessed in fasted male CD-1 mice (age 6-8 weeks) following a single intravenous (IV, 0.5 or 1.0 mg/kg administered at 2.5 ml/kg) or oral (PO, 5 mg/kg administered at 10 ml solution/kg) dose of test article formulated in a 20% (w:vol) HP-β-CD solution or in Pyrogen free water.
Plasma and/or whole blood samples were collected from the dorsal metatarsal vein at desired timepoints via serial capillary microsampling (approx. 0.03 mL) using EDTA as an anticoagulant. Concentrations of compound in the plasma and blood samples were analyzed using a qualified LC-MS/MS method. In silico analysis of main pharmacokinetic parameters was performed using WinNonlin (Phoenix™, version 6.1) or similar software.)

[4] = system: OCI-AML3 tumors; assay: Efficacy of combinations in OCI-AML3 (NPM1c) IV model in NSG mice; type: in vivo; conditions: azacitidine 2 mg/kg ip QD × 7; venetoclax 100 mg/kg po QD × 28; Compound A1 30 mg/kg po QD × 28
Method: Median survival was determined utilizing Kaplan-Meier survival analysis.

[5] = efficacious dose in mouse xenograft models of 30 mg/kg, (mouse, human)

SMILES | Hazard scoring, Color @ 0.1 μM ([1]; 30 min incubation, Table 12) | Hazard scoring, Color @ 0.3 μM ([1]; 30 min incubation, Table 12) | Hazard scoring, Color @ 1 μM ([1]; 30 min incubation, Table 12) | Hazard scoring, Color @ 3 μM ([1]; 30 min incubation, Table 12) | Hazard scoring, Color @ 10 μM ([1]; 30 min incubation, Table 12) | Hazard scoring, Color @ 30 μM ([1]; 30 min incubation, Table 12) | % ILS [2] | other results
CCN(C(=O)c1cc(F)ccc1Oc1nncnc1N1CCC2(C1)CN([C@H](CCCNCCOC)C(C)C)C2)C(C)C [Compound 11, (R)—N-ethyl-5-fluoro-N-isopropyl-2-((5-(2-(6-((2-methoxyethyl)amino)-2-methylhexan-3-yl)-2,6-diazaspiro[3.4]octan-6-yl)-1,2,4-triazin-6-yl)oxy)benzamide] | Green | Green | Green | Green | Green | Green | – | –
CCN(C(=O)c1cc(F)ccc1Oc1nncnc1N1CCC2(C1)CN([C@H](CCCN(C)CCOC)C(C)C)C2)C(C)C [Compound A1] | Green | Green | Green | Green | Green | yellow | 35* % | Margin CTCM human 10 μM vs free Cmax [1, 5]: > 16; Margin CTCM human 30 μM vs free Cmax [1, 5]: > 45
CCN(C(=O)c1cc(F)ccc1Oc1nncnc1N1CCC2(C1)CN([C@H](CCCN(C)CCOC)C(C)C)C2)C(C)C [Compound A3, (R)—N-ethyl-5-fluoro-N-isopropyl-2-((5-(2-(6-((2-methoxyethyl) (methyl)amino)-2-methylhexan-3-yl)-2,6-diazaspiro[3.4]octan-6-yl)-1,2,4-triazin-6-yl)oxy) benzamide oxalate] | – | – | – | – | – | – | – | In vivo T1/2 (IV) ([3]; formulating agent Pyrogen free water): 9.0 h; Hazard scoring, Color @ 0.1 μM ([1]; 30 min incubation, Table 11): Green; Hazard scoring, Color @ 0.2 μM ([1]; 0.2 μM, 30 min incubation, Table 11): Green; Hazard scoring, Color @ 0.5 μM ([1]; 0.5 μM, 30 min incubation, Table 11): Green; Hazard scoring, Color @ 1 μM ([1]; 30 min incubation, Table 11): Green; Hazard scoring, Color @ 2.5 μM ([1]; 2.5 μM, 30 min incubation, Table 11): Green; Hazard scoring, Color @ 5 μM ([1]; 5 μM, 30 min incubation, Table 11): Green
CCN(C(=O)c1cc(F)ccc1Oc1nncnc1N1CCC2(C1)CN([C@H](CCCN(C)CCOC)C(C)C)C2)C(C)C [Compound A, (R)—N-ethyl-5-fluoro-N-isopropyl-2-((5-(2-(6-((2-methoxyethyl) (methyl)amino)-2-methylhexan-3-yl)-2,6-diazaspiro[3.4]octan-6-yl)-1,2,4-triazin-6-yl)oxy) benzamide] | – | – | – | – | – | – | – | In vivo T1/2 (IV) ([3]; formulating agent HP-β-CD): 6.7 h; Bioavailability (PO) ([3]; PO 5 mg/kg, formulating agent HP-β-CD): 17%
CC1(C)CCC(CN2CCN(c3ccc(C(=O)NS(=O)(=O)c4ccc(NCC5CCOCC5)c([N+](=O)[O-])c4)c(Oc4cnc5[nH]ccc5c4)c3)CC2)=C(c2ccc(Cl)cc2)C1 [Venetoclax, reference compound] | – | – | – | – | – | – | 6% | % ILS [4]: 0 (ns) %
